Source: ChEMBL document CHEMBL5380793, “Structure-Activity Relationship of Novel Pyrimidine Derivatives with Potent Inhibitory Activities against Mycobacterium tuberculosis” (J Med Chem, 2023)
Converted amounts (≈) assume the structure as drawn.

Tests used:
[1] = system: Mycobacterium tuberculosis; experiment: Antibacterial activity against Mycobacterium tuberculosis H37Rv assessed as inhibition of bacterial growth incubated for 6 days by microplate alamar blue assay; assay type: functional; settings: 144 h, time 6 day
[2] = system: Mycobacterium tuberculosis; experiment: Antibacterial activity against Mycobacterium tuberculosis clinical isolate K16 assessed as inhibition of bacterial growth incubated for 6 days by microplate alamar blue assay; assay type: functional; settings: K16, 144 h, time 6 day
[3] = system: Mycobacterium tuberculosis; experiment: Antibacterial activity against Mycobacterium tuberculosis clinical isolate K12 assessed as inhibition of bacterial growth incubated for 6 days by microplate alamar blue assay; assay type: functional; settings: K12, 144 h, time 6 day
[4] = system: Mycobacterium tuberculosis; experiment: Antibacterial activity against Mycobacterium tuberculosis clinical isolate K5 assessed as inhibition of bacterial growth incubated for 6 days by microplate alamar blue assay; assay type: functional; settings: K5, 144 h, time 6 day
[5] = system: Mycobacterium tuberculosis; experiment: Antibacterial activity against Mycobacterium tuberculosis clinical isolate K4 assessed as inhibition of bacterial growth incubated for 6 days by microplate alamar blue assay; assay type: functional; settings: K4, 144 h, time 6 day
[6] = system: Mycobacterium tuberculosis; experiment: Antitubercular activity against marker free autoluminescent Mycobacterium tuberculosis H37Ra assessed as reduction in relative light unit measured once a day for 6 days; assay type: functional; settings: 144 h, time 6 day
[7] = Cytotoxicity against human HepG2 cells assessed as inhibition of cell growth incubated for 48 hrs by MTT assay; assay type: toxicity, cell-based
[8] = Toxicity in BALB/c mouse assessed as mouse death at 300 mg/kg, po measured after 6 days; assay type: organism-based; settings: in vivo, 144 h, time 6 day
[9] = target: T1, Dihydrofolate reductase (Mycobacterium tuberculosis) (UniProt P9WNX1); experiment: Inhibition of Mycobacterium tuberculosis DHFR at 10 uM relative to control
T1 sequence (whole entry): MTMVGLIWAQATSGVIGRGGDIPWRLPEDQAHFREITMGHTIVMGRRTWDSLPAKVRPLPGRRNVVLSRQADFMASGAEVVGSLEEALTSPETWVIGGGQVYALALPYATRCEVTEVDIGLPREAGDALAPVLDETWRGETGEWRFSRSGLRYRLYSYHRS

[10] = system: Escherichia coli; experiment: Antibacterial activity against Escherichia coli assessed as inhibition of bacterial growth; assay type: functional
[11] = system: Staphylococcus aureus; experiment: Antibacterial activity against methicillin-resistant Staphylococcus aureus assessed as inhibition of bacterial growth; assay type: functional
[12] = system: Mycobacteroides abscessus; experiment: Antibacterial activity against Mycobacterium abscessus assessed as inhibition of bacterial growth; assay type: functional
[13] = target: T1, Dihydrofolate reductase (Mycobacterium tuberculosis); experiment: Inhibition of Mycobacterium tuberculosis DHFR at 100 uM relative to control
[14] = system: Mycolicibacterium smegmatis; experiment: Antibacterial activity against Mycobacterium smegmatis assessed as inhibition of bacterial growth; assay type: functional

Structure (SMILES) | MIC [6] [µg/mL] | IC50 at 48 h [7] [nM] | other results
NNC(=O)c1ccncc1 [ISONIAZID] |  |  | MIC [1]: < 1 µg/mL; MIC [2]: > 10 µg/mL; MIC [3]: > 10 µg/mL; MIC [4]: > 50 µg/mL; MIC [5]: > 50 µg/mL
Cc1cc(Nc2nc(-c3ccc(CO)cc3)ncc2Cl)c(OC(C)C)cc1C1CCNCC1 | 2 (≈ 4.28 µM) | 2000 | 
Cc1cc(Nc2nc(N)ncc2Cl)c(OC(C)C)cc1C1CCNCC1 | 32 (≈ 85.1 µM) | > 10000 | 
CC(C)Oc1cc(N2CCNCC2)ccc1Nc1nc(-c2ccccc2)ncc1Cl | 1 (≈ 2.36 µM) | 2900 | 
Cc1cc(Nc2nc(-c3ccc4ccccc4c3)ncc2Cl)c(OC(C)C)cc1C1CCNCC1 | 0.5 (≈ 1.03 µM) | 500 | 
Clc1cnc(-c2ccccc2)nc1Nc1ccc(N2CCNCC2)cc1OCC1CCCCC1 | 2 (≈ 4.18 µM) | 2900 | 
CCCOc1cc(N2CCNCC2)ccc1Nc1nc(-c2ccccc2)ncc1Cl | 1 (≈ 2.36 µM) | 2100 | 
Cc1cc(Nc2nc(Nc3ccc(F)cc3)ncc2Cl)c(OC(C)C)cc1C1CCNCC1 | 0.5 (≈ 1.06 µM) | 2200 | MIC [1]: 1 µg/mL (≈ 2.13 µM); Activity [8]: Toxic; inhibition [9]: 2.8%; MIC [2]: 2 µg/mL (≈ 4.26 µM); MIC [3]: 1 µg/mL (≈ 2.13 µM); MIC [10]: > 16 µg/mL; MIC [11]: 4 µg/mL (≈ 8.51 µM); MIC [4]: 2 µg/mL (≈ 4.26 µM); MIC [12]: 8 µg/mL (≈ 17 µM); inhibition [13]: 3.5%; MIC [5]: 1 µg/mL (≈ 2.13 µM); MIC [14]: 4 µg/mL (≈ 8.51 µM)
Cc1cc(Nc2ccnc(-c3ccccc3)n2)c(OC(C)C)cc1C1CCNCC1 | 4 (≈ 9.94 µM) | 1900 | 
CC(C)COc1cc(N2CCNCC2)ccc1Nc1nc(-c2ccccc2)ncc1Cl | 1 (≈ 2.28 µM) | 2600 | 
Cc1cc(Nc2nc(-c3ccccc3)nc3ccsc23)c(OC(C)C)cc1C1CCNCC1 | 2 (≈ 4.36 µM) | 1700 | 
Cc1cc(Nc2nc(-c3cnc4ccccc4c3)ncc2Cl)c(OC(C)C)cc1C1CCNCC1 | 1 (≈ 2.05 µM) | 1000 | 
Cc1cc(Nc2cc(-c3ccccc3)nc3ncnn23)c(OC(C)C)cc1C1CCNCC1 | 4 (≈ 9.04 µM) | 4400 | 
Cc1cc(Nc2nc(-c3cccc(CO)c3)ncc2Cl)c(OC(C)C)cc1C1CCNCC1 | 4 (≈ 8.57 µM) | 4000 | 
Clc1cnc(-c2ccccc2)nc1Nc1ccc(N2CCNCC2)cc1OC1CCCCC1 | 2 (≈ 4.31 µM) | 3100 | 
Cc1cc(NC(=S)Nc2ccc(F)cc2)c(OC(C)C)cc1C1CCNCC1 | > 64 | > 20000 | 
Cc1cc(Nc2nc(-c3ccncc3)ncc2Cl)c(OC(C)C)cc1C1CCNCC1 | 2 (≈ 4.57 µM) | 2000 | 
Cc1cc(Nc2nc(C3CC3)ncc2Cl)c(OC(C)C)cc1C1CCNCC1 | 2 (≈ 4.99 µM) | 2000 | 
CCOc1cc(N2CCNCC2)ccc1Nc1nc(-c2ccccc2)ncc1Cl | 2 (≈ 4.88 µM) | 2500 | 
CC(C)CCOc1cc(N2CCNCC2)ccc1Nc1nc(-c2ccccc2)ncc1Cl | 1 (≈ 2.21 µM) | 2100 | 
Cc1cc(Nc2nc(Nc3ccccc3F)ncc2Cl)c(OC(C)C)cc1C1CCNCC1 | 1 (≈ 2.13 µM) | 1900 | 
COc1ccccc1Nc1ncc(Cl)c(Nc2cc(C)c(C3CCNCC3)cc2OC(C)C)n1 | 2 (≈ 4.15 µM) | 2000 | 
CNC(=O)c1ccc(-c2ncc(Cl)c(Nc3cc(C)c(C4CCNCC4)cc3OC(C)C)n2)cc1 | 2 (≈ 4.05 µM) | 2000 | 
Cc1cc(Nc2nc(Nc3ccc(Cl)cc3Cl)ncc2Cl)c(OC(C)C)cc1C1CCNCC1 | 2 (≈ 3.84 µM) | 2500 | 
CCCCOc1cc(N2CCNCC2)ccc1Nc1nc(-c2ccccc2)ncc1Cl | 1 (≈ 2.28 µM) | 2600 | 
Cc1cc(Nc2cc(C(F)(F)F)nc(-c3ccccc3)n2)c(OC(C)C)cc1C1CCNCC1 | 2 (≈ 4.25 µM) | 1300 | 
Clc1cnc(-c2ccccc2)nc1Nc1ccc(N2CCNCC2)cc1 | 8 (≈ 21.9 µM) | 3300 | 
Cc1cc(Nc2nc(-c3ccccc3)ncc2F)c(OC(C)C)cc1C1CCNCC1 | 0.5 (≈ 1.19 µM) | 2800 | 
Cc1cc(Nc2nc(Nc3cccc(Cl)c3)ncc2Cl)c(OC(C)C)cc1C1CCNCC1 | 1 (≈ 2.06 µM) | 2000 | 
Cc1cc(Nc2nc(Nc3cccc(C(F)(F)F)c3)ncc2Cl)c(OC(C)C)cc1C1CCNCC1 | 1 (≈ 1.92 µM) | 1100 | 
